According to US20220087990A1, “APPLICATION OF RIFAMYCIN-QUINOLIZIDONE CONJUGATE MOLECULE AND PHARMACEUTICALLY ACCEPTABLE SALT THEREOF” (priority 2019, published 2022):
≈ marks a conversion by molar mass, not a printed value. Where two headings read alike, the source gives them in different places.

Legend:
Format in all cases: cell-based
[1] = tested on: Staphylococcus aureus MMX 3265, 3270, 3278, and 6312; conditions: for Cell counts (mean): 1 used if no colonies
Method: Each test agent stock solution was prepared at 100× the final desired test concentration for the spontaneous mutation frequency assay agar plates.
The drug/agar mixture was dispensed into sterile 150×15 mm plates (BD Falcon) to a volume of 50 mL in each plate. The target inoculum for each spontaneous mutation plate was at least 10^9 CFU. Plates were allowed to solidify at room temperature.
The inocula for the spontaneous mutation frequency assay were prepared by using sterile cotton swabs to harvest colonies from freshly grown isolates and preparing a dense cell suspension (approximately 1.70 on the turbidity meter) in 6 mL of CAMHB. The viable count of this suspension was determined by plating serial ten-fold dilutions onto MHA and taking the average of duplicate counts. For the spontaneous mutation assay, 0.25 mL of inoculum was spread onto the surface of duplicate 150×15 mm plates for each drug concentration tested, allowed to dry, and then the plates were inverted and incubated at 35° C. for 48 hr prior to counting viable colonies. The spontaneous mutation frequency was calculated using the following equation:
Spontaneous mutation frequency=average number of colonies on selected plates/total number of cells incubated onto each plate
If there were no colonies on the antibiotic selection plates, the spontaneous mutation frequency was reported as less than or equal to the mutation frequency that would have resulted from the presence of one colony (e.g. 1/total number of cells inoculated onto the plate).

[2] = tested on: Staphylococcus aureus ATCC 29213; assay: MIC measured by fluid broth microdilution method (quality control); conditions: ATCC29213
[3] = tested on: Staphylococcus aureus ATCC 29213; assay: MIC measured by agar dilution method, quality control strain; conditions: strain 100, MSSA QC strain
Method: (§1) Spontaneous mutation and minimal inhibit concentration (MIC) tested by agar dilution method, the above compounds are respectively prepared into a stock solution (100X) with a concentration 100 times the highest final concentration in corresponding solvents and used on the same day. Before use, I is further diluted with DMSO; and oxacillin, rifampicin and levofloxacin are further diluted with water.
(§2) Bacterial isolates: Staphylococcus aureus isolates are retrieved from the −80° C. storage room of Micromyx Culture Collection, thawed, plated onto Tryptic Soy Agar+5% sheep blood (Remel; Lenexa, Kans.), and then incubated aerobically at 35° C. overnight. S. aureus ATCC 29213 (MRSA; MMX 0100) was included during testing only for the purpose of quality control. Test Media: The isolates were tested in both the agar dilution MIC assay and the spontaneous mutation assay using Mueller-Hinton Agar (MHA; BD/BBL; Lot No. 6229829 & 4216798). Inocula of each isolate were suspended in cation-adjusted Mueller-Hinton Broth (CAMHB) (BD/BBL; Lot Nos. 5257869 & 6258541). Sodium chloride (Sigma-Aldrich; Lot No. SLBL0434V) was added to CAMHB at a final concentration of 2% when testing oxacillin. Dilutions of bacterial cell suspensions for the purpose of performing colony counts were also made in CAMHB.
(§3) MIC measured by agar dilution method: according to the recommendation from the Clinical and Laboratory Standards Institute (CLSI), the MIC value is measured by the agar dilution method. […] Each test agent was combined with molten MHA agar (50-55° C.) at a ratio of 0.2 mL of 100× test agent to 19.8 mL agar in a sterile tube, mixed gently, and then poured into a sterile petri plate (BD Falcon). Plates were allowed to solidify at room temperature. A 0.5 McFarland standard bacterial suspension was prepared, diluted 1:10 in CAMHB, and transferred to the wells of a stainless steel replicator block before stamping onto plates containing drug, resulting in 10^4 CFU/spot. After allowing the inoculum to dry on the surface of the agar, the plates were inverted, incubated aerobically at 35° C. for 20-24 hr, and inspected for growth.
In parallel experiments, a standard bacterium suspension with a […] turbidity of 0.5 is prepared as a standard inoculum for agar dilution analysis (10^4 CFU/point). […] In this step, the broths and drugs used in the spontaneous mutation analysis are used to confirm that the concentration of the drug stock solution can inhibit the growth of the standard inoculum. The quality of the levofloxacin stock solution is controlled by a standard inoculum and levofloxacin of 8-0.008 μg/mL, and separate agar dilution analysis is performed. […]

[4] = tested on: methicillin-resistant Staphylococcus aureus (MRSA) isolates; assay: MIC measured by agar dilution method (CLSI); conditions: Staphylococcus aureus, MRSA, agar dilution
Method: as §1, §2, §3

[5] = isolate 3265 LEV^R RIF^S, drug 0.5 μg/mL in plates (combination 0.5 each), inoculation 5.40E+09 CFU
[6] = isolate 3265 LEV^R RIF^S, drug 2 μg/mL in plates (combination 2 each), inoculation 5.40E+09 CFU
[7] = isolate 3265 LEV^R RIF^S, drug 8 μg/mL in plates (combination 8 each), inoculation 5.40E+09 CFU
[8] = isolate 3270 LEV^R RIF^S, drug 0.5 μg/mL in plates (combination 0.5 each), inoculation 5.30E+09 CFU
[9] = isolate 3270 LEV^R RIF^S, drug 2 μg/mL in plates (combination 2 each), inoculation 5.30E+09 CFU
[10] = isolate 3270 LEV^R RIF^S, drug 8 μg/mL in plates (combination 8 each), inoculation 5.30E+09 CFU
[11] = isolate 3278 LEV^S RIF^S, drug 0.5 μg/mL in plates (combination 0.5 each), inoculation 3.80E+09 CFU
[12] = isolate 3278 LEV^S RIF^S, drug 2 μg/mL in plates (combination 2 each), inoculation 3.80E+09 CFU
[13] = isolate 3278 LEV^S RIF^S, drug 8 μg/mL in plates (combination 8 each), inoculation 3.80E+09 CFU
[14] = isolate 6312 LEV^R RIF^S, drug 0.5 μg/mL in plates (combination 0.5 each), inoculation 3.90E+09 CFU
[15] = isolate 6312 LEV^R RIF^S, drug 2 μg/mL in plates (combination 2 each), inoculation 3.90E+09 CFU
[16] = isolate 6312 LEV^R RIF^S, drug 8 μg/mL in plates (combination 8 each), inoculation 3.90E+09 CFU

With `CO[C@H]1/C=C/O[C@@]2(C)Oc3c(C)c(O)c4c(O)c(c(/C=N/N5CCN(C)CC5)c(O)c4c3C2=O)NC(=O)/C(C)=C\C=C\[C@H](C)[C@H](O)[C@@H](C)[C@@H](O)[C@@H](C)[C@H](OC(C)=O)[C@@H]1C` [Rifampicin] the “Cell counts (mean)” value ([1]; isolate 3265, drug 0.5 μg/mL) was 55, the “Cell counts (mean)” value ([1]; isolate 3265, drug 2 μg/mL) was 29 and the “Cell counts (mean)” value ([1]; isolate 3265, drug 8 μg/mL) was 36. The “Cell counts plate A” value [1, 5] was 52, the “Cell counts plate B” value [1, 5] was 57 and the Mutation frequency [1, 5] was 1.01E−08. For the same molecule, the “Cell counts plate A” value [1, 6] was 27, the “Cell counts plate B” value [1, 6] was 30 and the Mutation frequency [1, 6] was 5.28E−09. The “Cell counts plate A” value [1, 7] was 43, the “Cell counts plate B” value [1, 7] was 29 and the Mutation frequency [1, 7] was 6.67E−09. The “Cell counts (mean)” value ([1]; isolate 3270, drug 0.5 μg/mL) was 83, the “Cell counts (mean)” value ([1]; isolate 3270, drug 2 μg/mL) was 49 and the “Cell counts (mean)” value ([1]; isolate 3270, drug 8 μg/mL) was 43. The “Cell counts plate A” value [1, 8] was 93, the “Cell counts plate B” value [1, 8] was 73 and the Mutation frequency [1, 8] was 1.57E−08. For the same molecule, the “Cell counts plate A” value [1, 9] was 44, the “Cell counts plate B” value [1, 9] was 53 and the Mutation frequency [1, 9] was 9.15E−09. The “Cell counts plate A” value [1, 10] was 43, the “Cell counts plate B” value [1, 10] was 42 and the Mutation frequency [1, 10] was 8.02E−09. The “Cell counts (mean)” value ([1]; isolate 3278, drug 0.5 μg/mL) was 47, the “Cell counts (mean)” value ([1]; isolate 3278, drug 2 μg/mL) was 29 and the “Cell counts (mean)” value ([1]; isolate 3278, drug 8 μg/mL) was 34. For the same molecule, the “Cell counts plate A” value [1, 11] was 49, the “Cell counts plate B” value [1, 11] was 44 and the Mutation frequency [1, 11] was 1.22E−08. For the same molecule, the “Cell counts plate A” value [1, 12] was 20, the “Cell counts plate B” value [1, 12] was 37 and the Mutation frequency [1, 12] was 7.50E−09. For the same molecule, the “Cell counts plate A” value [1, 13] was 34, the “Cell counts plate B” value [1, 13] was 33 and the Mutation frequency [1, 13] was 8.82E−09. For the same molecule, the “Cell counts (mean)” value ([1]; isolate 6312, drug 0.5 μg/mL) was 32, the “Cell counts (mean)” value ([1]; isolate 6312, drug 2 μg/mL) was 29 and the “Cell counts (mean)” value ([1]; isolate 6312, drug 8 μg/mL) was 34. For the same molecule, the “Cell counts plate A” value [1, 14] was 34, the “Cell counts plate B” value [1, 14] was 29 and the Mutation frequency [1, 14] was 8.08E−09. The “Cell counts plate A” value [1, 15] was 36, the “Cell counts plate B” value [1, 15] was 22 and the Mutation frequency [1, 15] was 7.44E−09. For the same molecule, the “Cell counts plate A” value [1, 16] was 38, the “Cell counts plate B” value [1, 16] was 29 and the Mutation frequency [1, 16] was 8.59E−09. For the same molecule, the MIC [2] was 0.008 µg/mL (≈ 0.00972 µM), the MIC [3] was 0.015 µg/mL (≈ 0.0182 µM) and the MIC ([4]; strain 3085, LEV^S RIF^S) was 0.015 µg/mL (≈ 0.0182 µM). It also gave an MIC ([4]; strain 3090, LEV^R RIF^S) of 0.008 µg/mL (≈ 0.00972 µM), an MIC ([4]; strain 3094, LEV^R RIF^S) of 0.015 µg/mL (≈ 0.0182 µM) and an MIC ([4]; strain 3098, LEV^S RIF^S) of 0.015 µg/mL (≈ 0.0182 µM). It also gave an MIC ([4]; strain 3265, LEV^R RIF^S) of 0.008 µg/mL (≈ 0.00972 µM), an MIC ([4]; strain 3266, LEVR RIFS) of 0.008 µg/mL (≈ 0.00972 µM) and an MIC ([4]; strain 3270, LEV^R RIF^S) of 0.015 µg/mL (≈ 0.0182 µM). It also gave an MIC ([4]; strain 3271, LEV^R RIF^S) of 0.015 µg/mL (≈ 0.0182 µM), an MIC ([4]; strain 3277, LEV^S RIF^S) of 0.015 µg/mL (≈ 0.0182 µM) and an MIC ([4]; strain 3278, LEV^S RIF^S) of 0.015 µg/mL (≈ 0.0182 µM). For the same molecule, the MIC ([4]; strain 6312, LEV^R RIF^S) was 0.015 µg/mL (≈ 0.0182 µM), the MIC ([4]; strain 6313, LEV^R RIF^S) was 0.015 µg/mL (≈ 0.0182 µM) and the MIC ([4]; strain 6315, LEV^R RIF^S) was 0.015 µg/mL (≈ 0.0182 µM). The MIC ([4]; strain 6498, LEV^R RIF^S) was 0.015 µg/mL (≈ 0.0182 µM), the MIC ([4]; strain 6501, LEV^R RIF^S) was 0.015 µg/mL (≈ 0.0182 µM) and the MIC ([4]; strain 6505, LEV^R RIF^S) was 0.015 µg/mL (≈ 0.0182 µM). The MIC ([4]; strain 7771, LEV^R RIF^S) was 0.008 µg/mL (≈ 0.00972 µM), the MIC ([4]; strain 7772, LEV^S RIF^S) was 0.015 µg/mL (≈ 0.0182 µM) and the MIC ([4]; strain 7773, LEV^R RIF^S) was 0.015 µg/mL (≈ 0.0182 µM). For the same molecule, the MIC ([4]; strain 7774, LEV^R RIF^S) was 0.015 µg/mL (≈ 0.0182 µM) and the MIC ([4]; strain 7775, LEV^R) was 0.015 µg/mL (≈ 0.0182 µM).
